According to US20100041632A1, “USES OF THE CARBOXY-AMIDO-TRIAZOLE COMPOUNDS AND SALTS THEREOF” (priority 2006, published 2010):

Tests used:
Assay type in all cases: in vivo
[1] = system: Kunming mice; assay: Formalin test (analgesic effect)
Protocol: 320 Kunming mice (18-22 g, half male and half female) were divided into 4 groups randomly with 80 animals in each group.
Control group with dissolvent (PEG400/N.S.): 10 μl PEG400 was administered (ig) twice with the interval of 24 hours. The pain intensity test was carried out 8 hours after the second administration. 200 μl N.S. is injected (sc) 5 minutes before the test.
(§1) Morphine/PEG400 group: 10 μl PEG400 was administered (ig) twice with the interval of 24 hours. The pain intensity test was carried out 8 hours after the second administration. Morphine (2 mg/kg body weight) was injected (sc) 5 minutes before the test.
(§2) CAI/N.S. group: CAI (20 mg/kg body weight, 2 mg/ml) was administered (ig) twice with the interval of 24 hours. The pain intensity test was carried out 8 hours after the second administration. 200 μl N.S. was injected (sc) 5 minutes before the test.
The pain intensity test was carried out 8 hours after the second administration. Morphine (2 mg/kg body weight) was injected (sc) 5 minutes before the test.
5 minutes after the morphine or N.S. injection, 20 μl 2% formalin was injected (sc) into the subplantar space of the hind paw. The animals were placed immediately in a glass cylinder hanging on a holder, with a mirror placed below with 30° slope to observe the paw responses. The pain responses of the animals with injected paws were recorded; a pain ranking was recorded as follows: 3=the injected paw is licked, bitten, or shaken; 2=the injected paw is elevated and is not in contact with any other surface; 1=the injected paw has little or no weight on it; 0=the injected paw is not favored. The duration of each of the 4 behavioral categories was recorded. The observation lasted for 15 minutes. A pain intensity score was calculated by multiplying the amount of time spent in each category by its assigned category score and adding these products together.

[2] = system: rats; assay: Granulomatous tissue formation (implanted tampon)
Protocol: 44 rats (160 g) were randomly divided into 4 groups (11 rats/group). Animals were slightly anaesthetized by ether. After sterilization, the groin was cut bilaterally. A sterile tampon (50 mg) was implanted (sc). On the same day, the following treatments were administered: N.S. (i.p., control group), 0.067 mg/kg/day dexamethasone (i.p., positive control), 20 mg/kg/day CAI (p.o., dissolved in PEG 400, test group) and 0.067 mg/kg/day dexamethasone+20 mg/kg/day CAI (p.o., dissolved in PEG 400, combination group). After 7 days administration, the animals were sacrificed. The cotton was removed. The granulomatous tissue was dried at 60° C. oven for 12 hr and weighed. Increment in the dry weight of the tissue was taken as measure of granuloma formation. The Increment was adjusted for respective body weight, and the mean value for each group was calculated.

[3] = system: TNF-α; assay: TNF-α levels in paw tissue and serum of adjuvant arthritis rat (ELISA); settings: AA rats, day 29, ELISA
Protocol: Blood was collected from eve socket on day 29 and left in room temperature to allow coagulating. Then serum was separated by centrifugation at 3000 rpm for 10 min and kept in −20° C. After animals were sacrificed, the subcutaneous tissue of the right hind paw and that surrounding the tarsotibial joints was removed, broke into pieces, and placed in 5 ml normal saline (0.9%). The tissues were homogenized in a high speed homogenizer. Then the homogenate was centrifuged at 4° C. and 10,000 rpm for 15 min. The supernatants were collected and stored at −20° C. until further analysis.
IL-1β and TNF-α levels in paw tissue and serum were measured using specific rat ELISA kits according to the manufacturer's instructions.

[4] = system: Kunming mice; assay: Radiant heat test (tail-flick)
Protocol: The radiant heat dolorimeter (Collumbus Instruments) is used in this model with the tail-flick mode and the exposure rate of 20. The latency periods (TFL) starting from the beginning of exposure to the tail-flick responses were recorded as the pain threshold. The exposure time lasted for 16 seconds.
Kunming mice (18-22 g, male) are tested for the basic pain threshold before the test with drug administration, and those with pain threshold longer than 16 seconds are excluded. The selected mice are divided into 4 groups with 15 animals per group.
Control group with dissolvent: 10 μl PEG400 was administered (ig) twice with the interval of 24 hours. The pain intensity test was carried out 8 hours after the second administration. 200 μl N.S. was injected (sc) 5 minutes before the test.
as §1, §2
The pain intensity test was carried out 8 hours after the second administration, morphine (2 mg/kg body weight) was injected (sc) 5 minutes before the test.
The pain threshold of each mouse was tested before and after morphine or N.S. injection. The values after drug administration minus those before drug administration were considered to be the changing index of pain threshold.

NC(=O)c1nnn(Cc2cc(Cl)c(C(=O)c3ccc(Cl)cc3)c(Cl)c2)c1N [CAI, 5-amino-1-[3,5-dichloro-4-(4-chlorobenzoyl chloride)benzyl]-1H-1,2,3-triazole-4-carboxamide]
Pain intensity score (mean ± std) ([1]; 2% formalin sc hind paw, 15 minutes observation, CAI 20 mg/kg ig twice, morphine 2 mg/kg sc): 1007 ± 255 | Analgesic effect in formalin test (in words) ([1]; pain scores compared with the control group): decrease significantly | granulomatous tissue:bady weight ratio (mean ± std) ([2]; 7 days, CAI 20 mg/kg/day p.o., dexamethasone 0.067 mg/kg/day i.p.): 0.060 ± 0.00479 | Effect on granulomatous tissue formation (in words) ([2]; two-way ANOVA): potent in inhibiting granulomatous tissue formation | TNF-α levels in paw tissue and serum (in words) [3]: significantly reduced | Analgesic effect in radiant heat test (in words) ([4]; compared with the control group): neither have obvious analgesic effect alone | Pain threshold change (seconds, mean ± std) ([4]; tail-flick latency after minus before drug, CAI 20 mg/kg ig twice, morphine 2 mg/kg sc): 2.56 ± 2.62 s
